Measurements reported in patent US20220389008A1, “4-QUINOLINONE ANTIBACTERIAL COMPOUNDS” (Janssen Sciences Ireland Unlimited Company, priority 2019, published 2022).
Like-named read-outs stand apart in the source and are kept apart here.

Columns and labels:
[1] = test system: Mycobacterium tuberculosis (strain H37Ra), cyt bd; conditions: Mtb H37Ra; for (i) % OCR after cyt bd inhibitor: test compound 10 μM added after Compound X 0.9 μM; for (ii) % OCR after cccp: test compound 10 μM after Compound X 0.9 μM, then CCCP 1 μM
[2] = test system: Mycobacterium tuberculosis strain H37Rv ΔctaE-ΔqcrCAB; assay: microbe, parasite or virus in culture; format: cell-based; conditions: 240 h
[3] = test system: Mitochondrial toxicity (Glu/Gal); assay: Mitochondrial toxicity (Glu/Gal) assay; format: cell-based; design: key to Score: “negative” means that in the test, it was found to have low mitotoxicity (and hence no mitotoxicity alerts); “positive” means that there were some mitotoxicity alerts; “inconclusive” means that no accurate conclusion could be drawn; conditions: for Score: mitotoxicity score; for Δ IC50,glu/IC50,gal: ratio glu/gal
Description: The compounds of the invention/examples may have advantages associated with in vitro potency, kill kinetics (i.e. bactericidal effect) in vitro, PK properties, food effect, safety/toxicity (including liver toxicity, coagulation, 5-LO oxygenase), metabolic stability, Ames II negativity, MNT negativity, aqueous based solubility (and ability to formulate) and/or cardiovascular effect e.g. on animals (e.g. anesthetized guinea pig). The data below that was generated/calculated may be obtained using standard methods/assays, for instance that are available in the literature or which may be performed by a supplier (e.g. Microsomal Stability Assay—Cyprotex, Mitochondrial toxicity (Glu/Gal) assay—Cyprotex, as well as literature CYP cocktail inhibition assays).

[4] = galactose medium, read-out: IC50, gal
[5] = glucose medium, read-out: IC50, glu

In the case of Cc1c(-c2nc3ccc(OC(F)(F)F)cn3n2)[nH]c2ccccc2c1=O [Compound 30], the “(i) % OCR after cyt bd inhibitor” value [1] is reported as 93.8%, the “(ii) % OCR after cccp” value [1] is reported as 120.2% and the IC50 [2] is reported as 2.92 µM. The IC50 [3, 4] was 100 µM, the IC50 [3, 5] was 100 µM and the Score [3] was “negative”. The “Δ IC50,glu/IC50,gal” value [3] was “[x]0”.

CN(C)C(=O)c1c(-c2nc3ccc(-c4ccc(OC(F)(F)F)cc4)cn3n2)[nH]c2ccccc2c1=O [Compound 31] was tested, and the “(i) % OCR after cyt bd inhibitor” value [1] was 68.97%, the “(ii) % OCR after cccp” value [1] was 120.39% and the IC50 [2] was > 50 µM. For the same molecule, the IC50 [3, 4] was 76 µM, the IC50 [3, 5] was 200 µM and the Score [3] was “inconclusive”. The “Δ IC50,glu/IC50,gal” value [3] was “[x]2.63”.

In the case of Cc1c(-c2nc3cc(Br)ccn3n2)[nH]c2ccccc2c1=O [Compound 39], the “(i) % OCR after cyt bd inhibitor” value [1] is reported as 110.6%, the “(ii) % OCR after cccp” value [1] is reported as 133.8% and the IC50 [2] is reported as > 100 µM. The IC50 [3, 4] was 100 µM, the IC50 [3, 5] was 100 µM and the Score [3] was “negative”. The “Δ IC50,glu/IC50,gal” value [3] was “[x]0”.

COc1cc2nc(-c3[nH]c4ccccc4c(=O)c3C)nn2cc1F [Compound 40] was tested, and the “(i) % OCR after cyt bd inhibitor” value [1] was 95.33%, the “(ii) % OCR after cccp” value [1] was 134.33% and the IC50 [2] was > 100 µM. For the same molecule, the IC50 [3, 4] was 200 µM, the IC50 [3, 5] was 200 µM and the Score [3] was “negative”. The “Δ IC50,glu/IC50,gal” value [3] was “[x]0”.

With O=c1c(Br)c(-c2nc3ccc(-c4ccc(OC(F)(F)F)cc4)cn3n2)[nH]c2ccccc12 [Compound 41] the “(i) % OCR after cyt bd inhibitor” value [1] was 84.09%, the “(ii) % OCR after cccp” value [1] was 137.15% and the IC50 [2] was 33.9 µM. For the same molecule, the IC50 [3, 4] was 54.7 µM, the IC50 [3, 5] was 53.9 µM and the Score [3] was “negative”. The “Δ IC50,glu/IC50,gal” value [3] was “[x]0.99”.

In the case of Cc1c(-c2cn3ccc(-c4ccc(OC(F)(F)F)cc4)cc3n2)[nH]c2ccccc2c1=O [Compound 42], the “(i) % OCR after cyt bd inhibitor” value [1] is reported as 80.1%, the “(ii) % OCR after cccp” value [1] is reported as 137.9% and the IC50 [2] is reported as 30.7 µM. The IC50 [3, 4] was 200 µM, the IC50 [3, 5] was 200 µM and the Score [3] was “negative”.

COc1ccc2[nH]c(-c3nc4ccc(-c5ccc(OC(F)(F)F)cc5)cn4n3)c(C)c(=O)c2c1 [Compound 43] was tested, and the “(i) % OCR after cyt bd inhibitor” value [1] was 109.2%, the “(ii) % OCR after cccp” value [1] was 138% and the IC50 [2] was > 100 µM. The IC50 [3, 4] was 10.6 µM, the IC50 [3, 5] was 26.3 µM and the Score [3] was “inconclusive”. For the same molecule, the “Δ IC50,glu/IC50,gal” value [3] was “[x]2.48”.

For Cc1c(-c2nc3ccc(-c4cnc(C(F)(F)F)s4)cn3n2)[nH]c2ccccc2c1=O [Compound 45], the “(i) % OCR after cyt bd inhibitor” value [1] was 94.41%, the “(ii) % OCR after cccp” value [1] was 138.84% and the IC50 [2] was 5.96 µM. The IC50 [3, 4] was 20 µM, the IC50 [3, 5] was 20 µM and the Score [3] was “negative”. For the same molecule, the “Δ IC50,glu/IC50,gal” value [3] was “[x]0”.

Cc1c(-c2nc3cc(C(F)(F)F)c(Br)cn3n2)[nH]c2ccccc2c1=O [Compound 46] was tested, and the “(i) % OCR after cyt bd inhibitor” value [1] was 91.4%, the “(ii) % OCR after cccp” value [1] was 140.4% and the IC50 [2] was > 50 µM. For the same molecule, the IC50 [3, 4] was 100 µM, the IC50 [3, 5] was 100 µM and the Score [3] was “negative”. The “Δ IC50,glu/IC50,gal” value [3] was “[x]0”.

With Cc1c(-c2nc3ccc(Br)cn3n2)[nH]c2c(F)cc(F)cc2c1=O [Compound 57] the “(i) % OCR after cyt bd inhibitor” value [1] was 102%, the “(ii) % OCR after cccp” value [1] was 149.2% and the IC50 [2] was > 50 µM. For the same molecule, the IC50 [3, 4] was 100 µM, the IC50 [3, 5] was 100 µM and the Score [3] was “negative”. The “Δ IC50,glu/IC50,gal” value [3] was “[x]0”.

Cc1c(-c2nc3ccc(-c4c[nH]nn4)cn3n2)[nH]c2ccccc2c1=O [Compound 60] was tested, and the “(i) % OCR after cyt bd inhibitor” value [1] was 114.505%, the “(ii) % OCR after cccp” value [1] was 155.065% and the IC50 [2] was > 50 µM. The IC50 [3, 4] was 100 µM, the IC50 [3, 5] was 100 µM and the Score [3] was “negative”. For the same molecule, the “Δ IC50,glu/IC50,gal” value [3] was “[x]0”.

In the case of O=c1cc(-c2nc3ccc(-c4ccc(OC(F)(F)F)cc4)cn3n2)[nH]c2ccccc12 [Compound 65], the “(i) % OCR after cyt bd inhibitor” value [1] is reported as 99.86%, the “(ii) % OCR after cccp” value [1] is reported as 158.97% and the IC50 [2] is reported as > 10 µM. For the same molecule, the IC50 [3, 4] was 20 µM, the IC50 [3, 5] was 20 µM and the Score [3] was “negative”. The “Δ IC50,glu/IC50,gal” value [3] was “[x]0”.

In the case of Cc1c(Cc2nc3ccc(-c4ccc(OC(F)(F)F)cc4)cn3n2)[nH]c2ccccc2c1=O [Compound 67], the “(i) % OCR after cyt bd inhibitor” value [1] is reported as 99.28%, the “(ii) % OCR after cccp” value [1] is reported as 161.97% and the IC50 [2] is reported as 10.3 µM. For the same molecule, the IC50 [3, 4] was 0.39 µM, the IC50 [3, 5] was 30 µM and the Score [3] was “positive”. For the same molecule, the “Δ IC50,glu/IC50,gal” value [3] was “[x]76.87”.

For COc1ccc2[nH]c(-c3nc4ccc(Br)cn4n3)c(C)c(=O)c2c1 [Compound 68], the “(i) % OCR after cyt bd inhibitor” value [1] was 129.7%, the “(ii) % OCR after cccp” value [1] was 164.4% and the IC50 [2] was > 100 µM. For the same molecule, the IC50 [3, 4] was 100 µM, the IC50 [3, 5] was 100 µM and the Score [3] was “negative”. For the same molecule, the “Δ IC50,glu/IC50,gal” value [3] was “[x]0”.

With Cc1c(-c2nc3ccc(-c4ccccc4)cn3n2)[nH]c2ccccc2c1=O [Compound 72] the “(i) % OCR after cyt bd inhibitor” value [1] was 99.84%, the “(ii) % OCR after cccp” value [1] was 169.69% and the IC50 [2] was 0.261 µM. The IC50 [3, 4] was 100 µM, the IC50 [3, 5] was 100 µM and the Score [3] was “negative”. For the same molecule, the “Δ IC50,glu/IC50,gal” value [3] was “[x]0”.

For COc1cc2[nH]c(-c3nc4ccc(Br)cn4n3)c(C)c(=O)c2cc1OC [Compound 73], the “(i) % OCR after cyt bd inhibitor” value [1] was 105.2%, the “(ii) % OCR after cccp” value [1] was 171.2% and the IC50 [2] was > 100 µM. For the same molecule, the IC50 [3, 4] was 100 µM, the IC50 [3, 5] was 100 µM and the Score [3] was “negative”. For the same molecule, the “Δ IC50,glu/IC50,gal” value [3] was “[x]0”.

With Cc1c(-c2nc3ccc(Cl)cn3n2)[nH]c2ccccc2c1=O [Compound 74] the “(i) % OCR after cyt bd inhibitor” value [1] was 86.4%, the “(ii) % OCR after cccp” value [1] was 173.3% and the IC50 [2] was > 100 µM. For the same molecule, the IC50 [3, 4] was 121 µM, the IC50 [3, 5] was 135 µM and the Score [3] was “negative”. For the same molecule, the “Δ IC50,glu/IC50,gal” value [3] was “[x]l.ll”.

With Cc1c(-c2nc3ccc(OCC(F)(F)F)cn3n2)[nH]c2ccccc2c1=O [Compound 77] the “(i) % OCR after cyt bd inhibitor” value [1] was 110.77%, the “(ii) % OCR after cccp” value [1] was 175.26% and the IC50 [2] was 1.85 µM. For the same molecule, the IC50 [3, 4] was 200 µM, the IC50 [3, 5] was 200 µM and the Score [3] was “negative”. The “Δ IC50,glu/IC50,gal” value [3] was “[x]0”.

COc1ccc2[nH]c(-c3nc4ccc(-c5ccc(OC(F)(F)F)cc5)cn4n3)c(C)c(=O)c2c1Cl [Compound 80] was tested, and the “(i) % OCR after cyt bd inhibitor” value [1] was 122.15%, the “(ii) % OCR after cccp” value [1] was 180.98% and the IC50 [2] was > 25 µM. For the same molecule, the IC50 [3, 4] was 50 µM, the IC50 [3, 5] was 50 µM and the Score [3] was “negative”. The “Δ IC50,glu/IC50,gal” value [3] was “[x]0”.

For Cc1c(-c2nc3ccc(-c4cnn(CC(F)(F)F)c4)cn3n2)[nH]c2ccccc2c1=O [Compound 81], the “(i) % OCR after cyt bd inhibitor” value [1] was 98.58%, the “(ii) % OCR after cccp” value [1] was 182.7% and the IC50 [2] was 16.7 µM. For the same molecule, the IC50 [3, 4] was 200 µM, the IC50 [3, 5] was 200 µM and the Score [3] was “negative”. For the same molecule, the “Δ IC50,glu/IC50,gal” value [3] was “[x]0”.

In the case of Cc1nnc(-c2ccc3nc(-c4[nH]c5ccccc5c(=O)c4C)nn3c2)s1 [Compound 82], the “(i) % OCR after cyt bd inhibitor” value [1] is reported as 96.77%, the “(ii) % OCR after cccp” value [1] is reported as 186.45% and the IC50 [2] is reported as > 5 µM. The IC50 [3, 4] was 50 µM, the IC50 [3, 5] was 50 µM and the Score [3] was “negative”. For the same molecule, the “Δ IC50,glu/IC50,gal” value [3] was “[x]0”.

In the case of Cc1cc(F)cc(-c2ccc3nc(-c4[nH]c5ccccc5c(=O)c4C)nn3c2)c1 [Compound 86], the “(i) % OCR after cyt bd inhibitor” value [1] is reported as 32,57%, the “(ii) % OCR after cccp” value [1] is reported as 39,44% and the IC50 [2] is reported as 1.32 µM. For the same molecule, the IC50 [3, 4] was 50 µM, the IC50 [3, 5] was 50 µM and the Score [3] was “negative”. For the same molecule, the “Δ IC50,glu/IC50,gal” value [3] was “[x]0”.

In the case of COc1cc(OC)cc(-c2ccc3nc(-c4[nH]c5ccccc5c(=O)c4C)nn3c2)c1 [Compound 87], the “(i) % OCR after cyt bd inhibitor” value [1] is reported as 33,23%, the “(ii) % OCR after cccp” value [1] is reported as 38,98% and the IC50 [2] is reported as 0.548 µM. For the same molecule, the IC50 [3, 4] was 5.16 µM, the IC50 [3, 5] was 6.2 µM and the Score [3] was “inconclusive”. The “Δ IC50,glu/IC50,gal” value [3] was “[x]1.21”.
